Reference: ChEMBL document CHEMBL1125669, “Synthesis of potential dual-acting radiation sensitizer antineoplastic agents: 2,2-dimethylphosphoraziridines containing 2-nitroimidazoles or other electron-affinic moieties” (1991)

Key:
Type in all cases: functional
Mus musculus [1] = assay: In vivo antitumor activity against P-388 leukemia in CDF1 mice at 128 mg or 335 umol by ip administration expressed as average wt. change determined between day 0 and day 6 of experiment
Mus musculus [2] = assay: In vivo antitumor activity against P-388 leukemia in CDF1 mice at 32 mg or 84 umol by ip administration expressed as average wt. change determined between day 0 and day 6 of experiment
Mus musculus [3] = assay: In vivo antitumor activity against P-388 leukemia in CDF1 mice at 8 mg or 21 umol by ip administration expressed as average wt. change determined between day 0 and day 6 of experiment
Mus musculus [4] = assay: In vivo antitumor activity against P-388 leukemia in CDF1 mice at 256 mg or 670 umol by ip administration expressed as average wt. change determined between day 0 and day 6 of experiment
Mus musculus [5] = assay: In vivo antitumor activity against P-388 leukemia in CDF1 mice at 64 mg or 167 umol by ip administration expressed as average wt. change determined between day 0 and day 6 of experiment
Mus musculus [6] = assay: In vivo antitumor activity against P-388 leukemia in CDF1 mice at 16 mg or 42 umol by ip administration expressed as average wt. change determined between day 0 and day 6 of experiment
Mus musculus [7] = assay: In vivo antitumor activity against P-388 leukemia in CDF1 mice at 128 mg or 335 umol by ip administration expressed as median survival time of drug treated mice/median survival time of control mice x100
Mus musculus [8] = assay: In vivo antitumor activity against P-388 leukemia in CDF1 mice at 16 mg or 42 umol by ip administration expressed as median survival time of drug treated mice/median survival time of control mice x100
Mus musculus [9] = assay: In vivo antitumor activity against P-388 leukemia in CDF1 mice at 64 mg or 167 umol by ip administration expressed as median survival time of drug treated mice/median survival time of control mice x100
Mus musculus [10] = assay: In vivo antitumor activity against P-388 leukemia in CDF1 mice at 8 mg or 21 umol by ip administration expressed as median survival time of drug treated mice/median survival time of control mice x100
Mus musculus [11] = assay: In vivo antitumor activity against P-388 leukemia in CDF1 mice at 256 mg or 670 umol by ip administration expressed as median survival time of drug treated mice/median survival time of control mice x100
Mus musculus [12] = assay: In vivo antitumor activity against P-388 leukemia in CDF1 mice at 32 mg or 84 umol by ip administration expressed as median survival time of drug treated mice/median survival time of control mice x100
Mus musculus [13] = assay: In vivo antitumor activity against P-388 leukemia in CDF1 mice at 100 mg or 363 umol by ip administration expressed as average wt. change determined between day 0 and day 6 of experiment
Mus musculus [14] = assay: In vivo antitumor activity against P-388 leukemia in CDF1 mice at 400 mg or 1453 umol by ip administration expressed as average wt. change determined between day 0 and day 6 of experiment
Mus musculus [15] = assay: In vivo antitumor activity against P-388 leukemia in CDF1 mice at 50 mg or 182 umol by ip administration expressed as average wt. change determined between day 0 and day 6 of experiment
Mus musculus [16] = assay: In vivo antitumor activity against P-388 leukemia in CDF1 mice at 200 mg or 727 umol by ip administration expressed as average wt. change determined between day 0 and day 6 of experiment
Mus musculus [17] = assay: In vivo antitumor activity against P-388 leukemia in CDF1 mice at 100 mg or 363 umol by ip administration expressed as median survival time of drug treated mice/median survival time of control mice x100
Mus musculus [18] = assay: In vivo antitumor activity against P-388 leukemia in CDF1 mice at 200 mg or 727 umol by ip administration expressed as median survival time of drug treated mice/median survival time of control mice x100
Mus musculus [19] = assay: In vivo antitumor activity against P-388 leukemia in CDF1 mice at 400 mg or 1453 umol by ip administration expressed as median survival time of drug treated mice/median survival time of control mice x100
Mus musculus [20] = assay: In vivo antitumor activity against P-388 leukemia in CDF1 mice at 50 mg or 182 umol by ip administration expressed as median survival time of drug treated mice/median survival time of control mice x100
Mus musculus [21] = assay: In vivo antitumor activity against P-388 leukemia in CDF1 mice at 128 mg or 330 umol by ip administration expressed as average wt. change determined between day 0 and day 6 of experiment
Mus musculus [22] = assay: In vivo antitumor activity against P-388 leukemia in CDF1 mice at 16 mg or 41 umol by ip administration expressed as average wt. change determined between day 0 and day 6 of experiment
Mus musculus [23] = assay: In vivo antitumor activity against P-388 leukemia in CDF1 mice at 32 mg or 83 umol by ip administration expressed as average wt. change determined between day 0 and day 6 of experiment
Mus musculus [24] = assay: In vivo antitumor activity against P-388 leukemia in CDF1 mice at 64 mg or 165 umol by ip administration expressed as average wt. change determined between day 0 and day 6 of experiment
Mus musculus [25] = assay: In vivo antitumor activity against P-388 leukemia in CDF1 mice at 256 mg or 661 umol by ip administration expressed as average wt. change determined between day 0 and day 6 of experiment
Mus musculus [26] = assay: In vivo antitumor activity against P-388 leukemia in CDF1 mice at 128 mg or 330 umol by ip administration expressed as median survival time of drug treated mice/median survival time of control mice x100
Mus musculus [27] = assay: In vivo antitumor activity against P-388 leukemia in CDF1 mice at 16 mg or 41 umol by ip administration expressed as median survival time of drug treated mice/median survival time of control mice x100
Mus musculus [28] = assay: In vivo antitumor activity against P-388 leukemia in CDF1 mice at 256 mg or 661 umol by ip administration expressed as median survival time of drug treated mice/median survival time of control mice x100
Mus musculus [29] = assay: In vivo antitumor activity against P-388 leukemia in CDF1 mice at 32 mg or 83 umol by ip administration expressed as median survival time of drug treated mice/median survival time of control mice x100
Mus musculus [30] = assay: In vivo antitumor activity against P-388 leukemia in CDF1 mice at 64 mg or 165 umol by ip administration expressed as median survival time of drug treated mice/median survival time of control mice x100

## CC1(C)CN1P(=O)(NC(=O)OCc1ccc([N+](=O)[O-])cc1)N1CC1(C)C (configuration not stated)
Mus musculus [1]
  Average weight change: 2 g
Mus musculus [2]
  Average weight change: 2.1 g
Mus musculus [3]
  Average weight change: 1.4 g
Mus musculus [4]
  Average weight change: 0.6 g
Mus musculus [5]
  Average weight change: 1.4 g
Mus musculus [6]
  Average weight change: 1.2 g
Mus musculus [7]
  T/C: 113%
Mus musculus [8]
  T/C: 113%
Mus musculus [9]
  T/C: 113%
Mus musculus [10]
  T/C: 113%
Mus musculus [11]
  T/C: 119%
Mus musculus [12]
  T/C: 106%

## CCOC(=O)NP(=O)(N1CC1(C)C)N1CC1(C)C (configuration not stated) [METUREDEPA]
Mus musculus [13]
  Average weight change: -0.4 g
Mus musculus [14]
  Average weight change: -1.3 g
Mus musculus [15]
  Average weight change: -0.7 g
Mus musculus [16]
  Average weight change: -0.2 g
Mus musculus [17]
  T/C: 181%
Mus musculus [18]
  T/C: 231%
Mus musculus [19]
  T/C: 244%
Mus musculus [20]
  T/C: 163%

## COCC(Cn1ccnc1[N+](=O)[O-])OP(=O)(N1CC1(C)C)N1CC1(C)C (configuration not stated)
Mus musculus [21]
  Average weight change: -0.3 g
Mus musculus [22]
  Average weight change: 0.8 g
Mus musculus [23]
  Average weight change: 0.4 g
Mus musculus [24]
  Average weight change: 0.2 g
Mus musculus [3]
  Average weight change: 1.2 g
Mus musculus [25]
  Average weight change: -1.5 g
Mus musculus [26]
  T/C: 150%
Mus musculus [27]
  T/C: 100%
Mus musculus [10]
  T/C: 106%
Mus musculus [28]
  T/C: 200%
Mus musculus [29]
  T/C: 122%
Mus musculus [30]
  T/C: 133%
